Laboratory results taken from the supplement of paper PMC10307832.

Tests used:
Experiment in all cases: relative viability (nuclei count vs DMSO), 5 days (fraction); higher = more cells survive
YM155 + Palbociclib = compound: COCC[n+]1c2c(n(Cc3cnccn3)c1C)C(=O)c1ccccc1C2=O [YM155] + CC(=O)c1c(C)c2cnc(Nc3ccc(N4CCNCC4)cn3)nc2n(C2CCCC2)c1=O [Palbociclib] (partner 0.5 µM)
In short: (§1)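 Relative viability was taken as the ratio of nuclei in treated wells to nuclei in vehicle wells. Lung cancer cell lines in 1536-well plates received compounds by pin tool one day after seeding, either one drug alone or a fixed anchor-drug dose plus five library-drug doses (not always all listed) in √10 steps. Nuclei were counted on 4× images after 5 days of treatment, and values are medians of duplicate plates.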

YM155 + Decitabine = compound: COCC[n+]1c2c(n(Cc3cnccn3)c1C)C(=O)c1ccccc1C2=O [YM155] + Nc1ncn([C@H]2C[C@H](O)[C@@H](CO)O2)c(=O)n1 [Decitabine] (partner 2 µM)
In short: as §1

Quizartinib + Crizotinib = compound: CC(C)(C)c1cc(NC(=O)Nc2ccc(-c3cn4c(n3)sc3cc(OCCN5CCOCC5)ccc34)cc2)no1 [Quizartinib] + C[C@@H](Oc1cc(-c2cnn(C3CCNCC3)c2)cnc1N)c1c(Cl)ccc(F)c1Cl [Crizotinib] (partner 1 µM)
In short: as §1

Quizartinib + Linsitinib = compound: CC(C)(C)c1cc(NC(=O)Nc2ccc(-c3cn4c(n3)sc3cc(OCCN5CCOCC5)ccc34)cc2)no1 [Quizartinib] + C[C@]1(O)C[C@@H](c2nc(-c3ccc4ccc(-c5ccccc5)nc4c3)c3c(N)nccn32)C1 [Linsitinib] (partner 1 µM)
In short: as §1

| Cell Line | relative viability (YM155 + Palbociclib; first compound 0.002 µM) | relative viability (YM155 + Palbociclib; first compound 0.006325 µM) | relative viability (YM155 + Palbociclib; first compound 0.02 µM) | relative viability (YM155 + Palbociclib; first compound 0.06325 µM) | relative viability (YM155 + Decitabine; first compound 0.002 µM) | relative viability (YM155 + Decitabine; first compound 0.006325 µM) | relative viability (YM155 + Decitabine; first compound 0.02 µM) | relative viability (YM155 + Decitabine; first compound 0.06325 µM) | relative viability (Quizartinib + Crizotinib; first compound 0.001 µM) | relative viability (Quizartinib + Crizotinib; first compound 0.003162 µM) | relative viability (Quizartinib + Crizotinib; first compound 0.01 µM) | relative viability (Quizartinib + Crizotinib; first compound 0.03162 µM) | relative viability (Quizartinib + Crizotinib; first compound 0.1 µM) | relative viability (Quizartinib + Linsitinib; first compound 0.001 µM) | relative viability (Quizartinib + Linsitinib; first compound 0.003162 µM) | relative viability (Quizartinib + Linsitinib; first compound 0.01 µM) | relative viability (Quizartinib + Linsitinib; first compound 0.03162 µM) | relative viability (Quizartinib + Linsitinib; first compound 0.1 µM) |
| --- | --- | --- | --- | --- | --- | --- | --- | --- | --- | --- | --- | --- | --- | --- | --- | --- | --- | --- |
| SK-MES-1 | 0.312 | 0.357 | 0.225 | 0.191 | 0.423 | 0.289 | 0.285 | 0.21 | 0.943 | 0.949 | 1.12 | 0.976 | 0.937 | 1.03 | 1 | 1.14 | 0.975 | 0.996 |
| NCI-H1975 | 0.463 | 0.531 | 0.643 | 0.259 | 0.344 | 0.338 | 0.423 | 0.353 | 1.02 | 0.929 | 0.922 | 0.986 | 1.09 | 0.964 | 0.85 | 0.956 | 1 | 1.17 |
| HCC-78 | 0.395 | 0.43 | 0.483 | 0.504 | 0.647 | 0.751 | 0.739 | 0.741 | 0.315 | 0.345 | 0.376 | 0.319 | 0.391 | 0.471 | 0.4 | 0.486 | 0.451 | 0.514 |
| H3255 | 0.324 | 0.305 | 0.351 | 0.319 | 0.533 | 0.645 | 0.622 | 0.558 | 0.736 | 0.86 | 1 | 0.834 | 0.868 | 0.854 | 0.826 | 1.01 | 0.896 | 1.06 |
| NCI-H1299 |  |  |  |  |  |  |  |  | 0.92 | 0.949 | 1.01 | 0.928 | 0.956 | 0.952 | 0.95 | 0.987 | 1.02 | 1.01 |
| NCI-H441 | 0.224 | 0.202 | 0.267 | 0.213 | 0.277 | 0.243 | 0.248 | 0.189 | 0.527 | 0.624 | 0.896 | 0.673 | 0.969 | 0.357 | 0.645 | 0.607 | 0.51 | 0.479 |
| NCI-H1755 | 0.439 | 0.478 | 0.456 | 0.453 | 0.697 | 0.711 | 0.723 | 0.784 | 0.819 | 0.839 | 0.95 | 0.853 | 0.791 | 0.611 | 0.997 | 0.963 | 1 | 0.99 |
| LCLC-97TM1 |  | 0.232 | 0.241 | 0.19 |  | 0.178 | 0.202 | 0.254 |  | 0.27 | 0.463 | 0.297 | 0.417 |  | 0.148 | 0.185 | 0.174 | 0.21 |
| NCI-H2085 | 0.436 | 0.441 | 0.469 | 0.375 | 0.594 | 0.557 | 0.54 | 0.471 | 0.745 | 0.795 | 0.998 | 0.833 | 0.836 | 0.866 | 0.844 | 0.973 | 0.907 | 0.948 |
| BEN | 0.482 | 0.412 | 0.477 | 0.545 | 0.684 | 0.712 | 0.718 | 0.741 | 0.819 | 0.769 | 0.766 | 0.722 | 0.73 | 0.739 | 0.779 | 0.903 | 0.815 | 0.712 |
| NCI-H2126 | 0.354 | 0.369 | 0.369 | 0.369 | 0.53 | 0.624 | 0.59 | 0.6 | 0.816 | 0.992 | 1.12 | 0.962 | 1.07 | 0.712 | 0.705 | 0.735 | 0.767 | 0.835 |
| EMC-BAC-2 | 0.49 | 0.514 | 0.536 | 0.384 | 1.01 | 1.05 | 0.948 | 0.651 | 0.753 | 0.713 | 0.873 | 0.758 | 0.738 | 0.712 | 0.748 | 0.815 | 0.789 | 0.838 |
| NCI-H1793 | 0.292 | 0.324 | 0.323 | 0.304 | 0.988 | 0.485 | 0.61 | 0.497 |  |  |  |  |  | 0.833 | 0.896 | 0.843 | 0.885 | 0.829 |
| NCI-H650 | 0.314 | 0.292 | 0.383 | 0.31 | 0.329 | 0.3 | 0.282 | 0.293 | 0.684 | 0.525 | 0.772 | 0.628 | 0.749 | 0.807 | 0.787 | 0.798 | 0.694 | 1.15 |
| NCI-H1437 | 0.245 | 0.329 | 0.309 | 0.298 | 0.557 | 0.539 | 0.567 | 0.472 | 0.822 | 0.849 | 0.906 | 0.687 | 0.608 | 0.954 | 0.897 | 1.01 | 0.898 | 0.706 |
| COR-L 105 | 0.371 | 0.388 | 0.424 | 0.401 | 0.552 | 0.671 | 0.519 | 0.442 | 0.788 | 0.734 | 0.669 | 0.49 | 0.902 | 0.704 | 0.846 | 1.23 | 0.733 | 0.95 |
| CAL-12T | 0.45 | 0.582 | 0.489 | 0.433 |  |  |  |  | 0.652 | 0.662 | 0.724 | 0.202 | 0.696 | 0.744 | 0.771 | 0.976 | 0.882 | 0.986 |
| IA-LM |  |  |  |  |  |  |  |  | 0.858 | 0.912 | 0.726 |  | 0.623 | 0.518 | 0.657 | 0.652 | 0.724 | 0.679 |
| ChaGo-K-1 | 0.951 | 0.909 | 0.881 | 0.918 | 0.473 | 0.563 | 0.515 | 0.545 | 1.1 | 1.06 | 1.23 |  | 1.19 |  |  |  |  |  |
